By EC50 is commonly meant the concentration giving half of the maximal effect.

One assay has as its system H. pylori cag T4SS. The class given is cell-based. Particulars: no bacterial pre-treatment, about 18 hours post-infection, HEK293-TLR9 cells.
Assay [1] concerns cag T4SS. The class given is cell-based, H. pylori. Particulars: screening library, tested concentrations.
The subject of another assay is H. pylori. Briefly: H. pylori viability (cellular ATP, CellTiter-Glo). The class given is cell-based. Particulars: for H. pylori Toxicity: 150 μM, cellular ATP at 18 h of incubation. Background: ATP-based viability assays read luminescence as a measure of living cells.
In assay [2] the test system is cag T4SS. The class given is cell-based, H. pylori.
In assay [3] the test system is cag T4SS. Nature of the assay: NF-κB luciferase reporter activation by H. pylori in AGS cells. Particulars: WT H. pylori, AGS NF-κB-luc cells. The class given is cell-based. The protocol: Quantitation of NF-κB signaling activation. AGS cells stably transfected with an NF-κB-luciferase reporter (AGS NF-κB-luc) were cultured for 24 h and treated as described for the IL-8 induction studies. After 4 h co-culture with H. pylori, cell monolayers were washed with sterile PBS, and cell monolayer extracts were obtained by passive cell lysis. NF-κB-luciferase activity was measured by the Steady-Glo Luciferase Assay System (Promega) on a BioTek Synergy 4 plate reader, and plates were normalized to the DMSO vehicle control for each dilution series.
In general terms: Reporter assays use an easily measured gene product as a stand-in for the process of interest.

Regarding `O=C(O)C1CSc2c(C3CC3)c(Cc3ccc(OC4O[C@H](CO)[C@@H](O)[C@@H](O)[C@@H]4O)c4ccccc34)cc(=O)n21` (stereo partly drawn) [PS402, 8-cyclopropyl-5-oxo-7-((4-(((3S,4R,5S,6R)-3,4,5-trihydroxy-6-(hydroxymethyl)tetrahydro-2H-pyran-2-yl)oxy)naphthalen-1-yl)methyl)-2,3-dihydro-5H-thiazolo[3,2-a]pyridine-3-carboxylic acid], the “T4SS Inhibiton [50 μM] (TLR9 Activation Assay)” value (shortened to “T4SS Inhibiton [50 μM]”) in the assay on H. pylori cag T4SS is “++”. Regarding `O=C(O)C1CSc2c(C3CC3)c(Cc3ccc(C(F)(F)F)c4ccccc34)cc(=O)n21` (stereo not drawn) [KSK88, 8-cyclopropyl-5-oxo-7-((4-(trifluoromethyl)naphthalen-l1yl)methyl)-2,3-dihydro-5H-thiazolo[3,2-a]pyridine-3-carboxylic acid], in the assay on H. pylori cag T4SS, the “T4SS Inhibiton [50 μM]” value was “+++ (Very good T4SS inhibition (reproducibly inhibits T4SS activity by at least 50%, with representative results of about 80% inhibition at higher concentrations))”. `COc1ccc(Cc2cc(=O)n3c(c2C2CC2)SC[C@@H]3C(=O)O)c2ccccc12` [(S)-JG202, (S)-8-cyclopropyl-7-((4-methoxynaphthalen-1-yl)methyl)-5-oxo-2,3-dihydro-5H-thiazolo[3,2-a]pyridine-3-carboxylic acid]: the “T4SS Inhibiton [50 μM]” value in the assay with H. pylori cag T4SS was “++”. On to `O=C(O)[C@@H]1CSc2c(C3CC3)c3c(-c4cccc5ccccc45)n[nH]c3c(=O)n21` [MS218], for which the “cag T4SS activity, structure-activity statements” value (“cag T4SS activity” below) in the assay on cag T4SS [1] was “inactive”. `O=C([O-])[C@@H]1CSc2c(C3CC3)c(Cc3cccc4ccccc34)c(CN3CCOCC3)c(=O)n21.[Li+]` [NP048]: the “cag T4SS activity” value in the assay on cag T4SS [1] is recorded as “abolished activity”.

Turning to `COc1ccc2cc(Cc3cc(=O)n4c(c3C3CC3)SC[C@H]4C(=O)O)ccc2c1` [CB158, (R)-8-cyclopropyl-7-((6-methoxynaphthalen-2-yl)methyl)-5-oxo-2,3-dihydro-5H-thiazolo[3,2-a]pyridine-3-carboxylic acid], in the assay on H. pylori cag T4SS, the “T4SS Inhibiton [50 μM]” value was “+”. Regarding `O=C(O)[C@@H]1CSc2c(-c3cccc(C(F)(F)F)c3)c(Cc3cccc(COc4cccc5ccccc45)c3)cc(=O)n21` [CB151], in the assay with H. pylori, the “H. pylori Toxicity” value is “Toxic”. Regarding `O=C(O)c1c(Cc2ccccc2)sc2c(C3CC3)c(Cc3cccc4ccccc34)cc(=O)n12` [EC240, reference compound], the “cag T4SS activity” value in the assay with cag T4SS [1] was “not tolerated”. For the same compound, the “H. pylori Toxicity” value in the assay on H. pylori is listed as “Toxic”. `O=C(O)[C@@H]1CSc2c(-c3cccc(C(F)(F)F)c3)c(Cc3cccc4ccccc34)cc(=O)n21` [FN075, reference compound]: the “cag T4SS activity” value with cag T4SS [1] is given as “not tolerated”. The “H. pylori Toxicity” value with H. pylori is “Toxic”. Turning to `O=C(O)C1CS(=O)(=O)c2c(C3CC3)c(Cc3cccc4ccccc34)cc(=O)n21` (stereo not drawn) [TW460, 8-cyclopropyl-7-(naphthalen-1-ylmethyl)-5-oxo-2,3-dihydro-5H-thiazolo[3,2-a]pyridine-3-carboxylic acid 1,1-dioxide], the “T4SS Inhibiton [50 μM]” value with H. pylori cag T4SS is reported as “+”.

As to `O=C(O)C1CSc2c(C3CC3)c(Cc3cccc4ccccc34)cc(=O)n21` (racemic) [rac-C10], the “T4SS Inhibiton [50 μM]” value in the assay with H. pylori cag T4SS was “++”.

With `O=C(Nc1ccccc1)C1CSc2c(C3CC3)c(Cc3cccc4ccccc34)cc(=O)n21` (stereo not drawn) [KSK165], the “T4SS Inhibiton [50 μM]” value in the assay on H. pylori cag T4SS is listed as “+++ (Very good T4SS inhibition (reproducibly inhibits T4SS activity by at least 50%, with representative results of about 80% inhibition at higher concentrations))”. With `O=C(O)[C@@H]1CSc2c(C3CC3)c3cn(-c4ccccc4)cc3c(=O)n21` [GKP42, (3R)-9-cyclopropyl-5-oxo-7-phenyl-2,3,5,7-tetrahydropyrrolo[3,4-d][1,3]thiazolo[3,2-a]pyridine-3-carboxylic acid], in the assay on cag T4SS [2] (4.5 h co-culture, normalized IL-8 secretion, non-linear regression), the “LogEC50, attenuation of cag T4SS-dependent IL-8 secretion” value is −0.648. Moreover, the “cag T4SS-dependent IL-8 secretion” value in the assay on cag T4SS [2] (H. pylori-gastric epithelial cell co-culture, 25-150 μM) is “minimal or no effects”. Moreover, in the assay on cag T4SS [2] (read-out: EC50, attenuation of cag T4SS-dependent IL-8 secretion, 4.5 h co-culture, normalized IL-8 secretion, non-linear regression), the EC50 turned out to be 225 µM. The “cag T4SS-dependent NF-κB activation” value with cag T4SS [3] was “did not attenuate”. Besides, in the assay with cag T4SS [1], the “cag T4SS activity” value is “inactive”. Besides, the “viability of bacterial cells” value in the assay with H. pylori (concentrations up to 150 μM) is “did not impact viability”. In the case of `O=C(O)[C@@H]1CSc2c(C3CC3)c(Cc3cccc(COc4cccc5ccccc45)c3)cc(=O)n21` [CB160], the “H. pylori Toxicity” value in the assay with H. pylori was “Toxic”. Regarding `O=C([O-])[C@@H]1CSc2c(-c3ccccc3)c(Cc3cccc4ccccc34)cc(=O)n21.[Li+]` [PhenylC8], the “cag T4SS activity” value with cag T4SS [1] is listed as “not tolerated”. On to `O=C(O)[C@H]1CSc2c(C3CC3)c(Cc3cccc4ccccc34)cc(=O)n21` [JG14, (S)-8-cyclopropyl-7-(naphthalen-1-ylmethyl)-5-oxo-2,3-dihydro-5H-thiazolo[3,2-a]pyridine-3-carboxylic acid], for which the “T4SS Inhibiton [50 μM]” value in the assay with H. pylori cag T4SS is recorded as “++”.

Take `CCOc1ccc(Cc2cc(=O)n3c(c2C2CC2)SC[C@H]3C(=O)O)c2ccccc12` [(R)-JG131, (R)-8-cyclopropyl-7-((4-ethoxynaphthalen-1-yl)methyl)-5-oxo-2,3-dihydro-5H-thiazolo[3,2-a]pyridine-3-carboxylic acid]: the “T4SS Inhibiton [50 μM]” value in the assay with H. pylori cag T4SS was “+++ (Very good T4SS inhibition (reproducibly inhibits T4SS activity by at least 50%, with representative results of about 80% inhibition at higher concentrations))”. With `O=c1cc(Cc2cccc3ccccc23)c(C2CC2)c2n1CCS2` [EC013], in the assay on H. pylori cag T4SS, the “T4SS Inhibiton [50 μM]” value is listed as “+++ (Very good T4SS inhibition (reproducibly inhibits T4SS activity by at least 50%, with representative results of about 80% inhibition at higher concentrations))”. Turning to `O=C(O)[C@@H]1CSc2c(C3CC3)c(Cc3ccc4ccccc4c3)cc(=O)n21` [KSK61, (R)-8-cyclopropyl-7-(naphthalen-2-ylmethyl)-5-oxo-2,3-dihydro-5H-thiazolo[3,2-a]pyridine-3-carboxylic acid], the “T4SS Inhibiton [50 μM]” value in the assay on H. pylori cag T4SS was “++”. As for `Cc1cccc(-c2sc3c(-c4cn(C)c5ccccc45)c(COc4cccc5ccccc45)c(CN4CCOCC4)c(=O)n3c2C(=O)O)c1.Cl` [EC341], the “H. pylori Toxicity” value with H. pylori is reported as “Toxic”.
